From patent US6566394B1, “Salicylamide derivatives” (Mercian Corporation, priority 1999, dated 2003)

Experiments:
NF-κB = NF-κB production inhibitory activity, luciferase reporter gene assay; format: cell-based; conditions: 3×κBTK-Luc reporter, 2 h preincubation, TNF-α (20 ng/ml) for 6 hours; FIGS. 1(A), 1(B)
Experimental: A) NF-κB Production Inhibitory Activity
The NF-κB production inhibitory activity was measured by luciferase reporter gene assay as shown below.
[Luciferase Reporter Gene Assay]
A reporter using luciferase DNA was prepared and the NF-κB production inhibitory activity was measured by use of promoter/reporter assay.
As the plasmid for luciferase assay, 3×κBTK-Luc (endowed by Dr. Junichiro INOUE of The Institute of Medical Science, The University of Tokyo) obtained by coupling luciferase gene derived from lampyrid to 3×κB derived from Igκ gene and HSV-TK promoter was used. Further, for the β-galactosidase assay, a plasmid obtained by coupling β-galactosidase gene to β-actin promoter (endowed by Dr. Junichiro INOUE of The Institute of Medical Science, The University of Tokyo) was used.
2) Transfection and Luciferase Assay
Transfection was performed by a DEAE-dextran method. […]
For 10 μl of the sample, 100 μl of a luminescent substrate solution (Tricine (20 mM), (MgCO3).4Mg(OH)2.5H2O (1.07 mM), MgSO4 (2.67 mM), EDTA (0.1 mM), DTT (33.3 mM), Coenzyme A (270 μM), luciferin (470 μM), and ATP (530 μM)) was added and amount of luminescence was quantitated by use of Lumat LB9501 (Berthold: Bad Wildbad, Germany). Further, the measured amounts were corrected by β-galactosidase assay to obtain the value of luciferase activity. […]

[1] = tested on: collagen-induced arthritis; assay: Collagen-induced arthritis preventing effect; format: in vivo, mouse; conditions: mice, intraperitoneal 2 mg/kg or 4 mg/kg, 3 times/week, 18 times/6 weeks; FIGS. 2(A), 2(B)
Experimental: B) Collagen-induced Arthritis Preventing Effect
Type II collagen was emulsified together with an equivalent volume of Freund's complete adjuvant to prepare 1.5 mg/ml of administration solution. This was intradermally inoculated to the radicular portion of mouse tail in an amount of 0.1 ml (150 μg/mouse) to sensitize the mouse. After 3 weeks, 0.1 ml of type II collagen emulsified in the same operational manner as described was intraperitoneally administered to mouse (150 μg/mouse) to effect booster immunization to induce arthritis.
6 Animals/group of mice were intraperitoneally administered with DHM2EQ and DHM3EQ in a dosage of 2 mg/kg or 4 mg/kg 3 times/week from the day of initial immunization in a ratio of 0.1 ml/10 g of the bodyweight, in total 18 times/6 weeks. The control group (6 animals/group) was administered with 0.5% CMC solution in the same schedule as described above and to provide normal group (4 animals/group) in which no collagen arthritis was induced. The effect of inhibiting collagen-induced arthritis was evaluated by degrees of the flare, swelling and stiffening of anterior limb and posterior limb in scores of 0 to 4 (the maximum score of total for 4 limbs was 16).

SMILES: O=C(NC1=CC(=O)C2OC2C1O)c1ccccc1O (stereo not shown) [DHM2EQ, 5,6-epoxy-4-hydroxy-3-salicyloylamino-2-cyclohexenone]
- concentration at which NF-κB activity was inhibited (NF-κB): ≥ 1 µg/mL
- inhibition of collagen-induced arthritis (score of flare, swelling, stiffening of 4 limbs) [1]: inhibited collagen-induced arthritis

SMILES: O=C(NC1=CC(O)C2OC2C1=O)c1ccccc1O (stereo not shown) [DHM3EQ, 5,6-epoxy-4-hydroxy-2-salicyloylamino-2-cyclohexenone]
- concentration at which NF-κB activity was inhibited (NF-κB): 10 µg/mL
- inhibition of collagen-induced arthritis (score of flare, swelling, stiffening of 4 limbs) [1]: inhibited collagen-induced arthritis
